Experimental data: ChEMBL document CHEMBL3885881, “DrugMatrix”

Organism: Rattus norvegicus
Assay: DrugMatrix - Regimen: Daily Repeat
Format: toxicity, organism-based, Sprague-Dawley
Set-up: regimen Daily Repeat, gender Male, age 6-8 weeks
Settings: in vivo, iv, vehicle 100 % SALINE; for ABSOLUTE BASOPHIL / ABSOLUTE EOSINOPHIL / ABSOLUTE LYMPHOCYTE / ABSOLUTE MONOCYTE / ABSOLUTE SEGMENTED NEUTROPHIL / BASOPHIL / EOSINOPHIL / ERYTHROCYTE COUNT / HEMATOCRIT / HEMOGLOBIN / LEUKOCYTE COUNT / LYMPHOCYTE / MEAN CORPUSCULAR HEMOGLOBIN / MEAN CORPUSCULAR HEMOGLOBIN CONCENTRATION / MEAN CORPUSCULAR VOLUME / MONOCYTE / NEUTROPHIL / NUCLEATED RED BLOOD CELLS / PLATELET COUNT: tissue Blood; for ALANINE AMINOTRANSFERASE / ALBUMIN / ALKALINE PHOSPHATASE / ASPARTATE AMINOTRANSFERASE / BLOOD UREA NITROGEN / CARBON DIOXIDE / CHLORIDE / CHOLESTEROL / CREATINE PHOSPHOKINASE / CREATININE / GLUCOSE / LACTATE DEHYDROGENASE / LIPASE / PHOSPHORUS / POTASSIUM / SODIUM / TOTAL BILIRUBIN / TOTAL PROTEIN / URIC ACID: tissue Plasma
[1] = 0 mg/kg, 72 h, dose level Control, time 3 day
[2] = 0 mg/kg, 120 h, dose level Control, time 5 day
[3] = 0.5 mg/kg, 72 h, dose level Low, time 3 day

## CO[C@@]12[C@H](COC(N)=O)C3=C(C(=O)C(C)=C(N)C3=O)N1C[C@@H]1N[C@@H]12 [MITOMYCIN]
[1]
  ABSOLUTE BASOPHIL: 0 CELLS/uL
  ABSOLUTE EOSINOPHIL: 0 CELLS/uL
  ABSOLUTE LYMPHOCYTE: 7026.17 CELLS/uL
  ABSOLUTE MONOCYTE: 44.33 CELLS/uL
  ABSOLUTE SEGMENTED NEUTROPHIL: 379.5 CELLS/uL
  BASOPHIL: 0%
  EOSINOPHIL: 0%
  ERYTHROCYTE COUNT: 5.49 x10E6/uL
  HEMATOCRIT: 33.67%
  HEMOGLOBIN: 13.17 G/DL
  LEUKOCYTE COUNT: 7.45 x10E3/uL
  LYMPHOCYTE: 94%
  MEAN CORPUSCULAR HEMOGLOBIN: 24.03 pg
  MEAN CORPUSCULAR HEMOGLOBIN CONCENTRATION: 39.15 G/DL
  MEAN CORPUSCULAR VOLUME: 61.4 fL
  MONOCYTE: 0.67%
  NEUTROPHIL: 5.33%
  NUCLEATED RED BLOOD CELLS: 0.17 /100WBC
  PLATELET COUNT: 1062.5 x10E3/uL
  ALANINE AMINOTRANSFERASE: 53.17 u/L
  ALBUMIN: 4.33 G/DL
  ALKALINE PHOSPHATASE: 339.83 u/L
  ASPARTATE AMINOTRANSFERASE: 83.33 u/L
  BLOOD UREA NITROGEN: 16 mg/dL
  CARBON DIOXIDE: 32.5 mmol/L
  CHLORIDE: 98 MEQ/L
  CHOLESTEROL: 74.67 mg/dL
  CREATINE PHOSPHOKINASE: 284 u/L
  CREATININE: 0.2 mg/dL
  GLUCOSE: 128.67 mg/dL
  LACTATE DEHYDROGENASE: 110.33 u/L
  LIPASE: 9 u/L
  PHOSPHORUS: 11.73 mg/dL
  POTASSIUM: 6.34 MEQ/L
  SODIUM: 143.12 MEQ/L
  TOTAL BILIRUBIN: 0.18 mg/dL
  TOTAL PROTEIN: 6.2 G/DL
  URIC ACID: 1.28 mg/dL
[2]
  ABSOLUTE BASOPHIL: 0 CELLS/uL
  ABSOLUTE EOSINOPHIL: 26.67 CELLS/uL
  ABSOLUTE LYMPHOCYTE: 8334.17 CELLS/uL
  ABSOLUTE MONOCYTE: 29.5 CELLS/uL
  BASOPHIL: 0%
  EOSINOPHIL: 0.33%
  ERYTHROCYTE COUNT: 5.44 x10E6/uL
  HEMATOCRIT: 33.77%
  HEMOGLOBIN: 13.05 G/DL
  LEUKOCYTE COUNT: 8.98 x10E3/uL
  LYMPHOCYTE: 92.33%
  MEAN CORPUSCULAR HEMOGLOBIN: 24 pg
  MEAN CORPUSCULAR HEMOGLOBIN CONCENTRATION: 38.67 G/DL
  MEAN CORPUSCULAR VOLUME: 62.05 fL
  MONOCYTE: 0.33%
  NEUTROPHIL: 7%
  NUCLEATED RED BLOOD CELLS: 0 /100WBC
  PLATELET COUNT: 987 x10E3/uL
  ALANINE AMINOTRANSFERASE: 43.5 u/L
  ALBUMIN: 4.08 G/DL
  ALKALINE PHOSPHATASE: 310.17 u/L
  ASPARTATE AMINOTRANSFERASE: 76.67 u/L
  BLOOD UREA NITROGEN: 17 mg/dL
  CARBON DIOXIDE: 30.67 mmol/L
  CHLORIDE: 100.33 MEQ/L
  CHOLESTEROL: 69.33 mg/dL
  CREATINE PHOSPHOKINASE: 218.67 u/L
  CREATININE: 0.22 mg/dL
  GLUCOSE: 155.17 mg/dL
  LACTATE DEHYDROGENASE: 114.67 u/L
  LIPASE: 10.67 u/L
  PHOSPHORUS: 11.2 mg/dL
  POTASSIUM: 5.5 MEQ/L
  SODIUM: 144.12 MEQ/L
  TOTAL BILIRUBIN: 0.18 mg/dL
  TOTAL PROTEIN: 5.97 G/DL
  URIC ACID: 0.88 mg/dL
[3]
  ABSOLUTE BASOPHIL: 0 CELLS/uL
  ABSOLUTE EOSINOPHIL: 0 CELLS/uL
  ABSOLUTE LYMPHOCYTE: 8042 CELLS/uL
  ABSOLUTE MONOCYTE: 56.33 CELLS/uL
  ABSOLUTE SEGMENTED NEUTROPHIL: 601.67 CELLS/uL
  BASOPHIL: 0%
  EOSINOPHIL: 0%
  ERYTHROCYTE COUNT: 5.65 x10E6/uL
  HEMATOCRIT: 34.47%
  HEMOGLOBIN: 13.63 G/DL
  LEUKOCYTE COUNT: 8.7 x10E3/uL
  LYMPHOCYTE: 92.67%
  MEAN CORPUSCULAR HEMOGLOBIN: 24.13 pg
  MEAN CORPUSCULAR HEMOGLOBIN CONCENTRATION: 39.57 G/DL
  MEAN CORPUSCULAR VOLUME: 61.07 fL
  MONOCYTE: 0.67%
  NEUTROPHIL: 6.67%
  NUCLEATED RED BLOOD CELLS: 0 /100WBC
  PLATELET COUNT: 888.67 x10E3/uL
  ALANINE AMINOTRANSFERASE: 51.67 u/L
  ALBUMIN: 4.27 G/DL
  ALKALINE PHOSPHATASE: 324.67 u/L
  ASPARTATE AMINOTRANSFERASE: 87 u/L
  BLOOD UREA NITROGEN: 14.33 mg/dL
  CARBON DIOXIDE: 31 mmol/L
  CHLORIDE: 99 MEQ/L
  CHOLESTEROL: 72 mg/dL
  CREATINE PHOSPHOKINASE: 285 u/L
  CREATININE: 0.26 mg/dL
  GLUCOSE: 136.67 mg/dL
  LACTATE DEHYDROGENASE: 100.67 u/L
  LIPASE: 11.67 u/L
  PHOSPHORUS: 10.87 mg/dL
  POTASSIUM: 5.62 MEQ/L
  SODIUM: 144.1 MEQ/L
  TOTAL BILIRUBIN: 0.1 mg/dL
  TOTAL PROTEIN: 5.9 G/DL
  URIC ACID: 0.63 mg/dL
